# Earlier results as cited in patent US20220168241A1, “SUSTAINED RELEASE C[…] METHOD OF PREPARATION THEREOF” (PHARMATHEN S.A., priority 2019, published 2022).
# Target: recombinant μ-opioid receptor (Homo sapiens, UniProt P35372)
# Sequence (P35372 whole entry, species assumed): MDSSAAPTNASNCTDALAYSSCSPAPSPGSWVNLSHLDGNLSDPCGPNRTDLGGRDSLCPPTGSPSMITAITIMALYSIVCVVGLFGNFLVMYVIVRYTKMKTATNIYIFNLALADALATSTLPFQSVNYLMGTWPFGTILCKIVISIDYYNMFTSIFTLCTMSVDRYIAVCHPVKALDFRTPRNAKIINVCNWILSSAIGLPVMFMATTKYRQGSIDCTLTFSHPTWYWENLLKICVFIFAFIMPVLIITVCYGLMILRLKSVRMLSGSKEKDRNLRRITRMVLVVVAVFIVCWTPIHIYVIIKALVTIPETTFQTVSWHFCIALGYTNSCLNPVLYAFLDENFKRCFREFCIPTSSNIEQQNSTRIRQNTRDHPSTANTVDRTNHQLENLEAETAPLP
compound,measurement,value
CC[C@@H](c1cccc(O)c1)[C@@H](C)CN(C)C [Tapentadol],reduced affinity to recombinant μ-opioid receptor compared to morphine,18 times
